Reference: US20050282159A1, “Rpob gene of streptomyces, primer specific to streptomyces, and identification method of streptomyces having rifampin resistance or sensitivity by using the same” (priority 2001, published 2005)

Key:
[1] = system: S. flavotricini KCCM 40520; settings: TCG (TCC) genotype
Experimental: The primer sets of SEQ ID NOs: 1 and 2 were used to amplify rpoB genes of 60 strains, and nucleotides of the 352-bp products were analyzed with an automatic sequencer. SRPOF1 as a forward primer and SRPOR1 as a backward primer were used.

S. alboviridis KCTC 9750 = assay: rifampin-sensitive test on Bennet solid media; format: cell-based; set-up: key to genotype (rifampin-resistance or susceptibility): “(+)” indicates a genotype with rifampin-resistance; “(−)” indicates a genotype with rifampin-susceptibility
Experimental: (§1) The 47 strains were respectively cultured at 28° C. for 72 hr in Bennet liquid media. The culture solution was then inoculated on Bennet solid media (yeast extract 1 g/L, Beef extract 1 g/L, Tryptone 2 g/L, Glycerol 10 g/L, Agar 15 g/L) containing 25 ug/ml rifampin, and after incubation for 72 hr, rifampin-resistance was tested.

S. cinerous KCTC 9066 = assay: rifampin-sensitive test on Bennet solid media; format: cell-based; set-up: key to genotype (rifampin-resistance or susceptibility): “(+)” indicates a genotype with rifampin-resistance; “(−)” indicates a genotype with rifampin-susceptibility
Experimental: as §1

[2] = system: 47 strains of Streptomyces references; assay: rifampin-sensitive test on Bennet solid media (summary); format: cell-based; settings: 25 ug/ml rifampin, 72 hr
Experimental: A total of 47 strains of Streptomyces references including 24 reference strains having AAC encoding Asp and 23 reference strains having TCG or TCC encoding Ser at the sequenced positions were used, and 306-bI rpoB nucleotide sequences of the […] strains are shown in SEQUENCE LISTING.
as §1

60 strains = assay: rifampin genotype by rpoB nucleotide sequence analysis (summary); set-up: species or system Streptomyces; settings: the other 41 strains with TCG or TCC at the 352nd position
Experimental: (§2) The primer sets of SEQ ID NOs: 1 and 2 were used to amplify rpoB genes of 60 strains, and nucleotides of the […] products were analyzed with an automatic sequencer. SRPOF1 as a forward primer and SRPOR1 as a backward primer were used.

[3] = system: S. griseoruber KCCM 40658; settings: TCG (TCC) genotype
Experimental: as §2

S. anulatus KCCM 40190 = settings: AAC genotype
Experimental: as §2

S. chivaensis KCTC 9786 = settings: AAC genotype
Experimental: as §2

S. fimbriatus KCCM 11888 = settings: TCG (TCC) genotype
Experimental: as §2

S. kurssanovi KCCM 40527 = settings: TCG (TCC) genotype
Experimental: as §2

[4] = system: S. ambofaciens KCCM 40182; settings: AAC genotype
Experimental: as §2

S. fulvissimus KCTC 9773 = settings: TCG (TCC) genotype
Experimental: as §2

S. erythraeus KCCM 40477 = settings: TCG (TCC) genotype
Experimental: as §2

S. coelescens KCCM 40742 = settings: AAC genotype
Experimental: as §2

[5] = system: S. aburaviensis KCTC 9663; settings: TCG (TCC) genotype
Experimental: as §2

S. humiferus KCTC 9116 = settings: AAC genotype
Experimental: as §2

[6] = system: S. violaceoruber KCTC 9787; settings: AAC genotype
Experimental: as §2

[7] = system: S. xanthocidicus KCCM 40286; settings: AAC genotype
Experimental: as §2

[8] = system: S. aureufaciens KCCM 40127; settings: TCG (TCC) genotype
Experimental: as §2

S. fumanus KCCM 40522 = settings: TCG (TCC) genotype
Experimental: as §2

[9] = system: S. cyaneofuscatus KCCM 40517; settings: TCG (TCC) genotype
Experimental: as §2

[10] = system: S. disatochromogenes KCCM 40449; settings: TCG (TCC) genotype
Experimental: as §2

S. azureus KCCM 40485 = settings: TCG (TCC) genotype
Experimental: as §2

S. baldacii KCCM 41326 = settings: TCG (TCC) genotype
Experimental: as §2

S. eurythermus KCTC 9731 = settings: TCG (TCC) genotype
Experimental: as §2

[11] = system: S. citreofluorescens KCTC 9710; settings: TCG (TCC) genotype
Experimental: as §2

S. candidus KCTC 9020 = settings: TCG (TCC) genotype
Experimental: as §2

[12] = system: S. amakusaensis KCTC 9753; settings: TCG (TCC) genotype
Experimental: as §2

[13] = system: S. griseolosporeus KCTC 9791; settings: TCG (TCC) genotype
Experimental: as §2

S. umbrinus KCCM 40316 = settings: AAC genotype
Experimental: as §2

[14] = system: S. hachijoense KCCM 32306; settings: TCG (TCC) genotype
Experimental: as §2

S. kifunensis KCTC 9734 = settings: TCG (TCC) genotype
Experimental: as §2

S. albospinus KCTC 9762 = settings: TCG (TCC) genotype
Experimental: as §2

[15] = system: S. yokosukanens KCCM 40633; settings: AAC genotype
Experimental: as §2

S. erumpens KCTC 9729 = settings: TCG (TCC) genotype
Experimental: as §2

S. cremeus KCCM 40509 = settings: TCG (TCC) genotype
Experimental: as §2

[16] = system: S. albovinaceous KCCM 40177; settings: TCG (TCC) genotype
Experimental: as §2

[17] = system: S. coeruleofuscus KCCM 40506; settings: TCG (TCC) genotype
Experimental: as §2

CO[C@H]1/C=C/O[C@@]2(C)Oc3c(C)c(O)c4c(O)c(c(/C=N/N5CCN(C)CC5)c(O)c4c3C2=O)NC(=O)/C(C)=C\C=C\[C@H](C)[C@H](O)[C@@H](C)[C@@H](O)[C@@H](C)[C@H](OC(C)=O)[C@@H]1C [rifampin] was tested, and the “genotype (rifampin-resistant or -sensitive strain)” value [1] was “−”, the “growth in media containing rifampin” value (S. alboviridis KCTC 9750; S. alboviridis (KCTC 9750), Bennet solid media, FIG. 7 (B)) was “did not show growth” and the “genotype (rifampin-resistance or susceptibility)” value (S. alboviridis KCTC 9750; S. alboviridis KCTC 9750, TCG (TCC) genotype, 25 ug/ml rifampin, 72 hr) was “−”. For the same molecule, the “growth in media containing rifampin” value (S. cinerous KCTC 9066; S. cinerous (KCTC 9066), Bennet solid media, FIG. 7 (A)) was “generated colonies”, the “genotype (rifampin-resistance or susceptibility)” value (S. cinerous KCTC 9066; S. cinerous KCTC 9066, AAC genotype, 25 ug/ml rifampin, 72 hr) was “+” and the “rifampin resistance or sensitivity of the strains” value ([2]; all 24 strains having AAC genotypes) was “rifampin-resistant strains”. The “rifampin resistance or sensitivity of the strains” value ([2]; the 23 strains having TCG or TCC genotypes) was “rifampin-sensitive strains”, the “rifampin genotype of the strains” value (60 strains) was “rifampin-sensitive genotypes” and the “genotype (rifampin-resistant or -sensitive strain)” value [3] was “−”. For the same molecule, the “genotype (rifampin-resistant or -sensitive strain)” value (S. anulatus KCCM 40190) was “+”, the “genotype (rifampin-resistant or -sensitive strain)” value (S. chivaensis KCTC 9786) was “+” and the “genotype (rifampin-resistant or -sensitive strain)” value (S. fimbriatus KCCM 11888) was “−”. The “genotype (rifampin-resistant or -sensitive strain)” value (S. kurssanovi KCCM 40527) was “−”, the “genotype (rifampin-resistant or -sensitive strain)” value [4] was “+” and the “genotype (rifampin-resistant or -sensitive strain)” value (S. fulvissimus KCTC 9773) was “−”. The “genotype (rifampin-resistant or -sensitive strain)” value (S. erythraeus KCCM 40477) was “−”, the “genotype (rifampin-resistant or -sensitive strain)” value (S. coelescens KCCM 40742) was “+” and the “genotype (rifampin-resistant or -sensitive strain)” value [5] was “−”. For the same molecule, the “genotype (rifampin-resistant or -sensitive strain)” value (S. humiferus KCTC 9116) was “+”, the “genotype (rifampin-resistant or -sensitive strain)” value [6] was “+” and the “genotype (rifampin-resistant or -sensitive strain)” value [7] was “+”. For the same molecule, the “genotype (rifampin-resistant or -sensitive strain)” value [8] was “−”, the “genotype (rifampin-resistant or -sensitive strain)” value (S. fumanus KCCM 40522) was “−” and the “genotype (rifampin-resistant or -sensitive strain)” value [9] was “−”. For the same molecule, the “genotype (rifampin-resistant or -sensitive strain)” value [10] was “−”, the “genotype (rifampin-resistant or -sensitive strain)” value (S. azureus KCCM 40485) was “−” and the “genotype (rifampin-resistant or -sensitive strain)” value (S. baldacii KCCM 41326) was “−”. For the same molecule, the “genotype (rifampin-resistant or -sensitive strain)” value (S. eurythermus KCTC 9731) was “−”, the “genotype (rifampin-resistant or -sensitive strain)” value [11] was “−” and the “genotype (rifampin-resistant or -sensitive strain)” value (S. candidus KCTC 9020) was “−”. For the same molecule, the “genotype (rifampin-resistant or -sensitive strain)” value [12] was “−”, the “genotype (rifampin-resistant or -sensitive strain)” value [13] was “−” and the “genotype (rifampin-resistant or -sensitive strain)” value (S. umbrinus KCCM 40316) was “+”. For the same molecule, the “genotype (rifampin-resistant or -sensitive strain)” value [14] was “−”, the “genotype (rifampin-resistant or -sensitive strain)” value (S. kifunensis KCTC 9734) was “−” and the “genotype (rifampin-resistant or -sensitive strain)” value (S. albospinus KCTC 9762) was “−”. For the same molecule, the “genotype (rifampin-resistant or -sensitive strain)” value [15] was “+”, the “genotype (rifampin-resistant or -sensitive strain)” value (S. erumpens KCTC 9729) was “−” and the “genotype (rifampin-resistant or -sensitive strain)” value (S. cremeus KCCM 40509) was “−”. For the same molecule, the “genotype (rifampin-resistant or -sensitive strain)” value [16] was “−” and the “genotype (rifampin-resistant or -sensitive strain)” value [17] was “−”.
